Assay results published in publication PMC5865651, “Novel inhibitor candidates of TRPV2 prevent damage of dystrophic myocytes and ameliorate against dilated cardiomyopathy in a hamster model” (Oncotarget, 2018).

Columns and labels:
human TRPV2 (hTRPV2) = molecular target: T1, human TRPV2 (hTRPV2) (Homo sapiens, UniProt Q9Y5S1); assay: CaCl2 (5 mM)-induced increase in [Ca2+]i in CHO cells expressing hTRPV2; assay type: cell-based; parameters: expressed in transfected cells; host or cells: CHO cells; details: compound 15 μM
T1 sequence (Q9Y5S1 1-764): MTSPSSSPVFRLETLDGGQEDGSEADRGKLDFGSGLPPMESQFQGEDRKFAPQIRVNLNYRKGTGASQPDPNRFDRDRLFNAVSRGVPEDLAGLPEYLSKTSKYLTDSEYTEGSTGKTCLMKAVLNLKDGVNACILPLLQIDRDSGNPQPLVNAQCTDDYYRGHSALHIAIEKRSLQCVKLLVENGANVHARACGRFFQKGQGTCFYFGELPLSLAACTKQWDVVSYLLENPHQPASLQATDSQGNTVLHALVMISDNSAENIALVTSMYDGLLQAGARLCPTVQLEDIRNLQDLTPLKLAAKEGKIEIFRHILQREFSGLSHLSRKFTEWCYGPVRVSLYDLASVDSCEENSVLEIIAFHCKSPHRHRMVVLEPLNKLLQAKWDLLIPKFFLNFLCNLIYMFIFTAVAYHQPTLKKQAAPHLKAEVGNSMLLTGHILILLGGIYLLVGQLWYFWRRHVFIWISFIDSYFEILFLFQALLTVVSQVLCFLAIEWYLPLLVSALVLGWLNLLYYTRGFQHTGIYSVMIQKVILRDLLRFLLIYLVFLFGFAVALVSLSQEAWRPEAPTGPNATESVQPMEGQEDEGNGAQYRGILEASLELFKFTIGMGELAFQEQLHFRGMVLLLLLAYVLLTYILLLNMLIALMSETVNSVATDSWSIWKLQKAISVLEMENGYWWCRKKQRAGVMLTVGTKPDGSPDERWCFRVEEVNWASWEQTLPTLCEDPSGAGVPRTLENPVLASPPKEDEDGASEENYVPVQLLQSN
Description: Figure 4 Effects of inhibitor compounds on the Ca^2+ response of cells expressing hTRPV1, hTRPV2, or hTRPC1 (A) Effect of compounds on CaCl2 (5 mM)-induced peak fluorescence ratio in non-transfected (nt) or hTRPV2-transfected CHO cells. The extracellular Ca^2+-dependent increase in the ratio of fura-2 fluorescence intensity at 340/380 nm (ΔR, 2 min after addition of chemicals) was plotted as ΔR/R0 after normalising to the initial fluorescence ratio (R0). […] Solid bar, no inhibitor. (B) Effect of compounds on 2-APB (1 mM)/high extracellular CaCl2-induced peak fluorescence ratio in nt or hTRPV1-transfected HEK293 cells. […] (C) Effect of compounds on store-operated Ca^2+ entry in nt or hTRPC1-transfected HEK293 cells. Cells were treated with the endoplasmic reticulum Ca^2+ pump inhibitor thapsigargin and exposed to CaCl2 and the indicated compounds. ΔR was measured 2 min after the addition of CaCl2. […]
[Ca^2+]i was measured by a ratiometric fluorescence method as previously described. […] Fura-2-AM fluorescence was measured using an Aquacosmos fluorescence image processor (Hamamatsu Photonics, Hamamatsu, Japan). The time-course data are presented as the ratio of fluorescence at an excitation wavelength of 340 nm to that at 380 nm. The increase in the fluorescence ratio induced by the TRPV2 agonist 2-APB or high extracellular Ca^2+ (ΔR) was normalized to the initial ratio (R0) before stimulation. […]

J2N-k myocytes = assay: Stretch-induced CK release from J2N-k myocytes; assay type: cell-based, hamster; details: 30 μM, 30 min pretreatment, cyclic stretch 20% elongation 1 h
Description: Creatine phosphokinase (CK) activity in the medium was determined using an in vitro colorimetric assay kit (CK Test Kit; Wako Pure Chemical Industries, Ltd., Osaka, Japan) according to the manufacturer's protocol The cTN-I level in the serum was measured, while quantitative immunoblotting and immunocytochemistry were performed as previously described. Protein concentration was measured using the bicinchoninic acid assay (Pierce Chemical Co., Rockford, IL, USA) with bovine serum albumin as the standard. All histochemical and physiological analyses were performed by investigators blinded to the drug treatments. Unless otherwise stated, results are presented as the mean ± SD of at least 5 determinations. The unpaired Student's t-test and one-way ANOVA followed by Dunnett's test were used to analyse the data. Values of P < 0.05 (indicated as asterisks in the figures) were considered statistically significant. All cellular measurements were repeated at least 5 times. Representative data are shown.

COc1cc(/C=C(\C#N)C(=O)Nc2ccccc2C(=O)O)cc(Cl)c1OC [A3, 2-[(2E)-3-(3-Chloro-4,5-dimethoxyphenyl)-2-cyanoprop-2-enoylamino]benzoic acid]
effect on Ca2+ influx in response to CaCl2 exposure (human TRPV2 (hTRPV2)): markedly inhibited | reduction of stretch-induced CK release (J2N-k myocytes): up to 70%

COc1cccc(OCCn2cc(/C=N/n3cnnc3)c3ccccc32)c1 [B6, 1-{2-[3-((1E)-2-(1,2,4-triazol-4-yl)-2-azavinyl)indolyl]ethoxy}-3-methoxybenzene]
effect on Ca2+ influx in response to CaCl2 exposure (human TRPV2 (hTRPV2)): not
